In article PMC7594851, “Enhanced oral bioavailability of an etoposide multiple nanoemulsion incorporating a deoxycholic acid derivative–lipid complex” (Drug Delivery, 2020):
Converted amounts (≈) assume the structure as drawn. “And” between values parts separate entries of the source, which are not always exact repeats. Equal values may be shown once. Where a name gives a salt, the structure may show the parent alone.

Legend:
[1] = Droplet size, polydispersity index and zeta potential by dynamic laser light scattering; assay type: physicochemical; conditions: mean ± SD, n=6
Experimental: The average droplet size, polydispersity index (PDI), and zeta potential of ELNE were determined using a dynamic laser light scattering analyzer (Malvern Zetasizer Nano ZS90; Malvern Instruments, Malvern, UK). Morphological evaluation of the selected ELNE was performed by transmission electron microscopy (JEM-200; JEOL, Tokyo, Japan).

[2] = Parallel artificial membrane permeability assay (effective permeability, Pe); assay type: in vitro ADME; conditions: PAMPA; Table S3: after dissolution of ETP or ETP/LMCs in water, or incorporation into the nanoemulsion; mean ± SD, n=6
Experimental: A parallel artificial membrane permeability assay was performed using pre-coated 96-well plates designed for this assay (Corning, Corning, NY) according to the manufacturer’s instructions. Briefly, 300 µL PBS (pH 6.8) was added to the receiver plate, and 200 µL of each formulation diluted in PBS (pH 6.8) containing 100 µg/mL ETP was added to each well of the filter plate. The plates were then assembled, and the system was incubated at room temperature for five hours without shaking. After five hours, the plates were disassembled, and samples were withdrawn from both the donor and acceptor plates. The concentration of ETP that permeated through the artificial membrane was measured by HPLC at 254 nm. […] The effective permeability (Pe) of each sample was calculated according to the formula: (1) Pe=−ln[1−CA(t)/Cequilibrium]/[A ×(1/VD+1/VA)×t] where Pe is the permeability (cm/s), A is the effective permeation area (0.288 cm^2), VD is the volume of the donor well (0.2 mL), VA is the volume of the acceptor well (0.3 mL), t is the total incubation time in s, CA(t) is the concentration of the drug in the acceptor well at time t, and Cequilibrium represents [CD(t) × VD + CA(t) × VA]/(VD + VA), where CD(t) denotes the concentration of the drug in the donor well at time t.

[3] = Aqueous solubility of ETP and ETP/LMC complexes; assay type: physicochemical; conditions: water; mean ± SD, n=6
Excerpt: Supplement IDRD_A_1837293_SM2931.docx, table 3: Table S3. Aqueous solubilities of a physical complex of ETP and LMC and effective permeabilities of ETP and ETP/LMC or ETP and ETP/LMC-loaded nanoemulsion. | column: Aqueous solubility (μg/mL)

| Papp at 5 h, 100 µg/mL [2] [×10⁻⁶ cm/s] | solubility [3] [µg/mL] | SMILES | Particle size [1] [nm] | Polydispersity index [1] | Zeta potential [1] |
| --- | --- | --- | --- | --- | --- |
| – | – | CCCCCCCCCC(=O)OC[C@H](COP(=O)(O)O)OC(=O)CCCCCCCCC [PA, 1,2-didecanoyl-sn-glycero-3-phosphate (sodium salt)] | 276 ± 3.67 | 0.330 ± 0.008 | – |
| 0.251 ± 0.063 | 230 ± 29.4 (≈ 391 µM) | COc1cc([C@@H]2c3cc4c(cc3[C@@H](O[C@@H]3O[C@@H]5CO[C@@H](C)O[C@H]5[C@H](O)[C@H]3O)[C@H]3COC(=O)[C@H]23)OCO4)cc(OC)c1O [ETP, etoposide] | – | – | – |
| – | – | COC(=O)C(CCCCN)NC(=O)CCC(C)C1CCC2C3CCC4CC(O)CCC4(C)C3CC(O)C12C (stereo not drawn) [DCK, N^α-deoxycholyl-l-lysyl-methylester] | 263 ± 42.4 | 0.717 ± 0.107 | 29.4 ± 0.57 mV and 29.4 ± 0.576 mV |
